Assays:
Type in all cases: physicochemical
[1] = PEG-stability analyses: Form C/Form D mixture slurried in PEG300 with water; conditions: 1:1 mixture of Forms C and D slurried in PEG300; XRD
Protocol: Of particular interest was whether Form D would convert to a hydrate (e.g., Form C) in the presence of water. To investigate the critical water concentration for phase interconversion between Pattern C and D, a series experiments were designed (as summarized in TABLE 16). A 1:1 mixture of Forms C and D was prepared and slurried in PEG 300 with different levels of water concentrations. Phase transformations were monitored with XRD, and are summarized in FIG. 85, which (from top to bottom) provides XRD of Form C, Form D, the mixture following incubation in PEG300 containing 75% water, the mixture following incubation in PEG300 containing 50% water, the mixture following incubation in PEG300 containing 25% water, the mixture following incubation in PEG300 containing 10% water, and the mixture following incubation in PEG300 containing 5% water. […] Form D is the stable form in PEG300 with less than 50% water.

[2] = Differential scanning calorimetry (DSC): heat of fusion, thermal events
Protocol: Differential scanning calorimetry analyses were performed on each sample “as is.” Unless otherwise specified, samples were weighed in an aluminum pan, covered with a pierced lid, and then crimped and analyzed from 30-300° C. ramped at 10° C./min.
The DSC data were used to determine the heat of fusion for Forms A, B, D, and F, based on their heats of fusion as measured during conversion from Form C.

[3] = Chemical stability in pH media (HPLC impurities)
Protocol: For the pH stability analyses, approximately 2-3 mg Form D was incubated in 1.0 mL of aqueous pH 1.0 (0.1 M HCl), pH 6.8 (water adjusted using 0.1 M NaOH and 0.1 M HCl), and pH 10.0 solutions.

[4] = Competitive slurry experiments (solvent-mediated polymorph transformation, XRD); conditions: 1 and 7 days
Protocol: Polymorph stability and interconversions were analyzed with competitive slurry experiments. The competitive slurry (solvent-mediated transformation) experiments were performed on Forms A, B, D, E, F, G, and I generated through scaled-up crystallization (summarized in TABLE 11). […] The suspensions were aliquoted at one day and seven days and filtered to isolate the solids. Remaining solid was analyzed by XRD without drying.
In FIG. 66, the second spectrum from the top corresponds to Form E. These XRD data confirmed that Patterns C, K, and D were afforded in these solvents.
In order to further confirm the rank of stability order of the selected forms and extend the temperature range of stability relationship up to 70° C. covering potential API process conditions, binary form slurries were conducted with starting mixtures of (1) Forms A and D, and (2) Forms D and E. The resultant polymorphs were characterized with XRD after 1 and 7 days, the results of which analyses are shown in FIGURE S 67-68 and summarized in TABLE 13. Pattern D stood out from both binary mixture slurries of A & D and of D & E after seven-day stirring at the elevated temperature.
Additional single form slurry experiments were conducted on Forms A, D, and E in either water or heptane at room temperature. […] In agreement with prior competitive slurry experiments, Form D was stable at room temperature in n-heptane. Pattern E was obtained from slurries starting with Forms A and E in n-heptane. As expected, Form C was formed from the Pattern E slurry in water.

[5] = Thermal gravimetric analysis (TGA); conditions: below 150° C.
Protocol: Thermal gravimetric analyses were performed on each sample “as is.” Unless otherwise noted, samples were weighed in an alumina crucible and analyzed from 30-350° C. at 10° C./min.
Form C weight loss at 39° C.-50° C. likely reflected methanol loss.

SMILES: CC[C@H](C)C(=O)N1CCC(NC(=O)Nc2ccc(OC(F)(F)F)c(F)c2)CC1 [Form D, (S)-1-(3-fluoro-4-(trifluoromethoxy)phenyl)-3-(1-(2-methylbutanoyl)piperidin-4-yl)urea]
- critical water concentration for phase interconversion between Pattern C and D [1]: 50%
- DSC Thermal Events, Endo: melting of pattern D [2]: 143 °C melting of pattern D
- stability rank among Forms A, B, D and F ([2]; DSC, TABLE 10): highest stability
- thermodynamic stability (from heat of fusion) ([2]; DSC, TABLE 10): thermodynamically stable
- Heat of fusion ([2]; DSC, scaled-up polymorphs, measured during conversion from Form C): 67.51
- Impurity, % (Day 4) ([3]; 50° C., pH 1.0): None Detected
- Impurity, % (Day 7) ([3]; 50° C., pH 1.0): None Detected
- Impurity, % (Day 4) ([3]; 50° C., pH 6.8): None Detected
- Impurity, % (Day 7) ([3]; 50° C., pH 6.8): None Detected
- Impurity, % (Day 4) ([3]; 50° C., pH 10.0): None Detected
- Impurity, % (Day 7) ([3]; 50° C., pH 10.0): None Detected
- Impurity, % (Day 4) ([3]; Room Temperature, pH 1.0): None Detected
- Impurity, % (Day 7) ([3]; Room Temperature, pH 1.0): None Detected
- Impurity, % (Day 4) ([3]; Room Temperature, pH 6.8): None Detected
- Impurity, % (Day 7) ([3]; Room Temperature, pH 6.8): None Detected
- Impurity, % (Day 4) ([3]; Room Temperature, pH 10.0): None Detected
- Impurity, % (Day 7) ([3]; Room Temperature, pH 10.0): None Detected
- impurities after incubation in pH media ([3]; aqueous pH 1.0, pH 6.8, pH 10.0, 4 or 7 days, room temperature or 50° C.): No impurities were detectable
- polymorph stability in binary form slurries ([4]; mixtures A & D and D & E, n-heptane, up to 70° C.): most thermodynamically stable
- single form slurry in n-heptane: resultant polymorph ([4]; n-heptane, room temperature): stable
- polymorph stability in competitive slurry ([4]; room temperature, water, MTBE or n-heptane, listed as Pattern D): most stable form
- TGA: wt change [5]: No wt change below
